For one assay, the target named is CDK4/D1 (Homo sapiens, UniProt P11802). The experiment in a line: ADP Glo Kinase assay CDK4/D1. The format is biochemical. The settings on record: CDK4D1; for remaining activity at 10 µM: compound at 10 μM, read-out: residual activity (%) at 10 μM CDK4D1. A digest of the protocol:
(§1)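 ADP Glo luminescence, in-house: CDK4/D1, CDK6/D3 on RB-CTF substrate (Tris pH 7.5, MgCl2, DTT, BSA); CDK9/T1 on RBER-IRStide. Reaction 40 min, 37° C after ATP addition. 10-point 1:3 series, 10 μM to 0.5 nM. IC50 by 4-parameter logistic; Ki derived using ATP Km.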
A general note: In ADP-Glo the light output rises with the ADP produced.

The target of another assay is CDK6/D3 (Homo sapiens, UniProt Q00534). The experiment in a line: ADP Glo Kinase assay CDK6/D3. The format is biochemical. The settings on record: CDK6D3; compound at 10 μM; read-out: residual activity (%) at 10 μM CDK6D3. A digest of the protocol:
as §1

In a further assay the target is CDK9/T1 (Homo sapiens, UniProt P50750). The assay can be described thus: ADP Glo Kinase assay CDK9/T1. It is filed as biochemical. The settings on record: CDK9T1; read-out: CDK inhibition, Ki (μM) CDK9T1. A digest of the protocol: as §1
Assay [1] concerns the target T1, CDKs and other kinases (Homo sapiens, UniProt P06493).
T1 construct: other: CDK1B; residual activity (%) at 10 μM CDK1B; compound at 10 μM
The assay can be described thus: Radiometric kinase assay (Eurofins Pharma Discovery or Reaction Biology Corporation Kinase Profiler). It is filed as biochemical. The settings on record: CDK1B; for remaining activity at 10 µM: compound at 10 μM, read-out: residual activity (%) at 10 μM CDK1B; for Ki: read-out: CDK inhibition, Ki (μM) CDK1B. A digest of the protocol:
(§2)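 Other CDKs and further kinases were profiled externally by radiometric assay. In-house ADP Glo assays covered CDK4/D1 and CDK6/D3 (RB-CTF substrate, pH 7.5 Tris buffer with MgCl2, DTT, BSA) and CDK9/T1 (RBER-IRStide substrate), 40 min at 37° C.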

Assay [2] has as its target T2, CDKs and other kinases (Homo sapiens, UniProt P24941).
T2 construct: other: CDK2A; residual activity (%) at 10 μM CDK2A; compound at 10 μM
The description is as above. The format is biochemical. Conditions: CDK2A; for remaining activity at 10 µM: compound at 10 μM, read-out: residual activity (%) at 10 μM CDK2A; for Ki: read-out: CDK inhibition, Ki (μM) CDK2A. A digest of the protocol:
as §2

The target in assay [3] is T3, CDKs and other kinases (Homo sapiens, UniProt P50613).
T3 construct: other: CDK7H; residual activity (%) at 10 μM CDK7H; compound at 10 μM
Described as above. It is filed as biochemical. The settings on record: CDK7H; for remaining activity at 10 µM: compound at 10 μM, read-out: residual activity (%) at 10 μM CDK7H; for Ki: read-out: CDK inhibition, Ki (μM) CDK7H. A digest of the protocol: as §2

A further assay concerns leukemia cell lines. The experiment in a line: Resazurin cell viability assay on leukemia cell lines (72 h growth inhibition, GI50). The format is cell-based. Conditions: Homo sapiens, MV4-11 cells. A digest of the protocol:
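Cells were exposed to compound, then viability was read by MTT (solid tumour lines) or resazurin reduction (leukaemia lines). Non-linear regression gave the concentration inhibiting 50% of cell growth.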

The structures appear in SMILES notation.

Chain of CDK6/D3 (Q00534 whole entry): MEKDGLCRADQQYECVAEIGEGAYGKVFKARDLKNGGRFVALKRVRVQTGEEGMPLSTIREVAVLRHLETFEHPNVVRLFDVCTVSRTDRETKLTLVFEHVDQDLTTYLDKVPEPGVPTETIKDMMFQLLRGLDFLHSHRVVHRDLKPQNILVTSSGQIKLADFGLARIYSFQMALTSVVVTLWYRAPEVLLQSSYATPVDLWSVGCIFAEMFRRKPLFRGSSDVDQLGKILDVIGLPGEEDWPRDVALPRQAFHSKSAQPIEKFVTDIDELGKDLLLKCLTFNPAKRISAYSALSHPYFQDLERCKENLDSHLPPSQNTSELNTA
Chain of CDK6/D3 (P30281 whole entry partner): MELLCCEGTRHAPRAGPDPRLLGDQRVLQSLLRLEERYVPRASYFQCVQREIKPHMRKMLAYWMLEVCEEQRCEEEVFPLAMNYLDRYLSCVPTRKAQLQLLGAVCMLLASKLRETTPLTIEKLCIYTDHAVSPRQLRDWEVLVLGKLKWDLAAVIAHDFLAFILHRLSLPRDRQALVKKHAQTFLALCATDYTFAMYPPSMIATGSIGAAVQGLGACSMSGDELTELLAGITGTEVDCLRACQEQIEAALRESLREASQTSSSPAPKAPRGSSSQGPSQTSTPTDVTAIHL
Chain of CDK9/T1 (P50750 whole entry): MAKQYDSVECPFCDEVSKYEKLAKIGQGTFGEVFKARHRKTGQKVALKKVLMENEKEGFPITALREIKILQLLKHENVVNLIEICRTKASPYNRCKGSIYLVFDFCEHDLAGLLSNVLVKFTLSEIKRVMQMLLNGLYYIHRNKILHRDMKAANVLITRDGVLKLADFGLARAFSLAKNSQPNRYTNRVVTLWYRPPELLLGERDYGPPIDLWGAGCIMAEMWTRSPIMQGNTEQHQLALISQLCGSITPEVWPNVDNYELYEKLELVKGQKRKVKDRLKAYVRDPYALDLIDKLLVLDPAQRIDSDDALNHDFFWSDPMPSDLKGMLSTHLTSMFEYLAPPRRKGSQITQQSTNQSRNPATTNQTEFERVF
Chain of CDK9/T1 (O60563 whole entry partner): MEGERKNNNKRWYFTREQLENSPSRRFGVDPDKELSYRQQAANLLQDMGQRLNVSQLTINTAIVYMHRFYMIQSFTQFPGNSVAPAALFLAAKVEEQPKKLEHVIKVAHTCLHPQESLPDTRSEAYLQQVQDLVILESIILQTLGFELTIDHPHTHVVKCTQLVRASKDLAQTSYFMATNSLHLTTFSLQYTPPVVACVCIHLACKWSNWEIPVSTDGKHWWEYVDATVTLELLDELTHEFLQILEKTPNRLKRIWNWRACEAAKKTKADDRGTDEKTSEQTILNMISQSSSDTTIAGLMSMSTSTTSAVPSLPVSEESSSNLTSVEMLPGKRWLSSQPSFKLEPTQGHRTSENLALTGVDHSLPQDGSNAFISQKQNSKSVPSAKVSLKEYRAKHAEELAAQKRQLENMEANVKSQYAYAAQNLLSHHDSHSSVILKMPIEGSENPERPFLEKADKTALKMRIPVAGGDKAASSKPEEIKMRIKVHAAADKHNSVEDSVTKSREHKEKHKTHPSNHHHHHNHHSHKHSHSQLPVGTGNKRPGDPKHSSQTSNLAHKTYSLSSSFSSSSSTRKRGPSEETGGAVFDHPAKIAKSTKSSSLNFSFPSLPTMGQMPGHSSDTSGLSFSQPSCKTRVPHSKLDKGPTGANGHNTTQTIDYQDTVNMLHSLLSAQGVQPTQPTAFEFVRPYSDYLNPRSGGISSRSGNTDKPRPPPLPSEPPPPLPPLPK
Chain of CDK4/D1 (P11802 whole entry): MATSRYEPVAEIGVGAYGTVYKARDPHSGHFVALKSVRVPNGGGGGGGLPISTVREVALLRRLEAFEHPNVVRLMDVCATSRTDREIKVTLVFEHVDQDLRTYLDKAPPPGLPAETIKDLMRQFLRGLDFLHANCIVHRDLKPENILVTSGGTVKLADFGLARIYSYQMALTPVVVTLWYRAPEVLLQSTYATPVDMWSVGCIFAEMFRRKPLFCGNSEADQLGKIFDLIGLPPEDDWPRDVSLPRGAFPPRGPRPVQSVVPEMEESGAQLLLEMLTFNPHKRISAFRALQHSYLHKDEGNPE
Chain of CDK4/D1 (P24385 whole entry partner): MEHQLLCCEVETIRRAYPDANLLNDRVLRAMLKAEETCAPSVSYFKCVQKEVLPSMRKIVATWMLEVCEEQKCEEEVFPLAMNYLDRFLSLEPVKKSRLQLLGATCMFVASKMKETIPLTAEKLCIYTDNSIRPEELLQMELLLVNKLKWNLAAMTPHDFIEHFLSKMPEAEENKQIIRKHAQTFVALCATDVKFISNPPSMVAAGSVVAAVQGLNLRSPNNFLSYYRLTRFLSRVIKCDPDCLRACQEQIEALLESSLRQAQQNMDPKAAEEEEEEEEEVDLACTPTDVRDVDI
T1 sequence (P06493 whole entry): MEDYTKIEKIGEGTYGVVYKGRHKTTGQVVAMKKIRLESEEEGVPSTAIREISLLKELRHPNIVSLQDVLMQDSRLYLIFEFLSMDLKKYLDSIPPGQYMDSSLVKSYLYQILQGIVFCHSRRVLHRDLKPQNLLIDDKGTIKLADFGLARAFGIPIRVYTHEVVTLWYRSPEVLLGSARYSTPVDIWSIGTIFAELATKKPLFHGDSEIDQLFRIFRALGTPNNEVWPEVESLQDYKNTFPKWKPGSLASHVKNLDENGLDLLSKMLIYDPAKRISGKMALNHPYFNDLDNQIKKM
T3 sequence (P50613 whole entry): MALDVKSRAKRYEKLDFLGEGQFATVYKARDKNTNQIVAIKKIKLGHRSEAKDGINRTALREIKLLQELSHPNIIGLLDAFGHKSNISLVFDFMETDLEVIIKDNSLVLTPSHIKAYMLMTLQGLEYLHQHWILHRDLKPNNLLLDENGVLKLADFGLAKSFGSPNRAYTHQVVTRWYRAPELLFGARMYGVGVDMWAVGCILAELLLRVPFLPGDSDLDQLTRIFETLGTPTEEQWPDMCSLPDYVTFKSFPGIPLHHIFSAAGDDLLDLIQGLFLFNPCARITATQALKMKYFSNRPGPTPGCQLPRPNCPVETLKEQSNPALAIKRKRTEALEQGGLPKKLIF

On to `Cc1cnc(N[C@H]2CC[C@H](N)CC2)nc1-c1cnc2cc(-c3ccccc3)ccn12` [Compound 53, (1r,4r)-N^1-(5-Methyl-4-(7-phenylimidazo[1,2-a]pyridin-3-yl)pyrimidin-2-yl)cyclohexane-1,4-diamine], for which the remaining activity at 10 µM was 0% at CDK4/D1; 0% on CDK6/D3; 18% at CDKs and other kinases [1]; 3% at CDKs and other kinases [2]; 5% on CDKs and other kinases [3]. Also, at CDK9/T1, the Ki (in general, the equilibrium dissociation constant of an inhibitor or competing ligand from its target) came out at 0.049 µM. Also, the GI50 (in general, the concentration that inhibits growth by half) with leukemia cell lines was 0.002 ± 0.001 µM.

For the molecule `Cc1cnc(N[C@H]2CC[C@H](N)CC2)nc1-c1cnc2cc(-c3cccnc3)ccn12` [Compound 54, (1r,4r)-N^1-(5-Methyl-4-(7-(pyridin-3-yl)imidazo[1,2-a]pyridin-3-yl)pyrimidin-2-yl)cyclohexane-1,4-diamine], the remaining activity at 10 µM amounted to 0% on CDK4/D1; 0% at CDK6/D3; 29% at CDKs and other kinases [1]; 5% at CDKs and other kinases [2]; 6% on CDKs and other kinases [3]. Besides, the Ki at CDK9/T1 stood at 0.11 µM. Besides, it took 0.018 ± 0.004 µM to inhibit growth in the assay on leukemia cell lines by half (GI50).

For `Cc1cnc(N[C@H]2CC[C@H](N)CC2)nc1-c1cnc2cc(Nc3cccnc3)ccn12` [Compound 55, (1r,4r)-N^1-(5-Methyl-4-(7-(pyridin-3-ylamino)imidazo [1,2-a]pyridin-3-yl)pyrimidin-2-yl)cyclohexane-1,4-diamine], the remaining activity at 10 µM was 5% on CDK4/D1; 2% on CDK6/D3; 24% at CDKs and other kinases [1]; 5% at CDKs and other kinases [2]; 8% at CDKs and other kinases [3]. The Ki on CDK9/T1 is 0.069 µM. This molecule had a GI50 in the assay with leukemia cell lines of 0.558 ± 0.13 µM.

As for `COc1cccc(-c2ccc3ncc(-c4nc(N[C@H]5CC[C@H](N)CC5)ncc4C)n3c2)c1` [Compound 57, (1r,4r)-N^1-(4-(6-(3-Methoxyphenyl)imidazo[1,2-a]pyridin-3-yl)-5-methylpyrimidin-2-yl)cyclohexane-1,4-diamine], the remaining activity at 10 µM at CDK4/D1 was determined as 45%; on CDK6/D3 it was 39%; on CDKs and other kinases [1], 47%; on CDKs and other kinases [2] it was 31%; at CDKs and other kinases [3], 17%. Moreover, the Ki on CDK9/T1 amounted to 0.069 µM. Also, in the assay with leukemia cell lines, halving of growth (GI50) required 0.067 ± 0.014 µM.

Turning to `COc1ccc(-c2ccc3ncc(-c4nc(N[C@H]5CC[C@H](N)CC5)ncc4C)n3c2)cn1` [Compound 58, (1r,4r)-N^1-(4-(6-(6-Methoxypyridin-3-yl)imidazo[1,2-a]pyridin-3-yl)-5-methylpyrimidin-2-yl)cyclohexane-1,4-diamine], the remaining activity at 10 µM on CDK4/D1 stood at 69%; at CDK6/D3, 86%; at CDKs and other kinases [1] it was 71%; on CDKs and other kinases [2] it was 70%; on CDKs and other kinases [3] it was 22%. Further, the Ki at CDK9/T1 is 0.17 µM. Further, it took 0.177 ± 0.005 µM to inhibit growth with leukemia cell lines by half (GI50).

In the case of `Cc1cnc(N[C@H]2CC[C@H](N)CC2)nc1-c1cnc2ccc(-c3c(C)noc3C)cn12` [Compound 59, (1r,4r)-N^1-(4-(6-(3,5-Dimethylisoxazol-4-yl)imidazo [1,2-a]pyridin-3-yl)-5-methylpyrimidin-2-yl) cyclohexane-1,4-diamine], the remaining activity at 10 µM at CDK4/D1 is 55%; on CDK6/D3 it was 91%. Also, the Ki is 0.072 µM on CDK9/T1; 2.68 µM on CDKs and other kinases [1]; 0.92 µM at CDKs and other kinases [2]; 2.39 µM on CDKs and other kinases [3]. Halving of growth with leukemia cell lines (GI50) required 0.274 ± 0.064 µM.

With `Cc1cnc(N[C@H]2CC[C@H](N)CC2)nc1-c1cnc2ccc(-c3ccc(CN4CCOCC4)cc3)cn12` [Compound 60, (1r,4r)-N^1-(5-Methyl-4-(6-(4-(morpholinomethyl)phenyl)imidazo[1,2-a]pyridin-3-yl)pyrimidin-2-yl)cyclohexane-1,4-diamine], at CDK4/D1, the residual activity (in general, the signal under treatment as a percentage of the control signal) at 10 µM was determined as 115%. Moreover, the remaining activity at 10 µM stood at 89% on CDK6/D3; 57% at CDKs and other kinases [1]; 62% on CDKs and other kinases [2]; 37% on CDKs and other kinases [3]. In addition, the Ki at CDK9/T1 was determined as 0.41 µM. The same molecule returned a GI50 in the assay on leukemia cell lines of 0.057 ± 0.006 µM.

As for `Cc1cnc(N[C@H]2CC[C@H](N)CC2)nc1-c1cnc2ccc(-c3ccc(N4CCOCC4)nc3)cn12` [Compound 61, (1r,4r)-N^1-(5-Methyl-4-(6-(6-morpholinopyridin-3-yl)imidazo[1,2-a]pyridin-3-yl)pyrimidin-2-yl)cyclohexane-1,4-diamine], the remaining activity at 10 µM on CDK4/D1 came out at 17%; at CDK6/D3 it was 89%; on CDKs and other kinases [1], 79%; on CDKs and other kinases [2], 63%; at CDKs and other kinases [3] it was 37%. The Ki at CDK9/T1 amounted to 0.49 µM. In the assay with leukemia cell lines, this molecule showed a GI50 of 0.083 ± 0.035 µM.

With `Cc1cnc(N[C@H]2CC[C@H](N)CC2)nc1-c1cnc2ccc(-c3ccc(S(=O)(=O)N(C)C)cc3)cn12` [Compound 62, 4-(3-(2-(((1r,4r)-4-Aminocyclohexyl)amino)-5-methylpyrimidin-4-yl)imidazo[1,2-a]pyridin-6-yl)-N,N-dimethylbenzenesulfonamide], the remaining activity at 10 µM at CDK4/D1 came to 63%; at CDK6/D3, 87%; on CDKs and other kinases [1], 87%; on CDKs and other kinases [2] it was 72%; on CDKs and other kinases [3], 60%. For the same molecule, on CDK9/T1, the Ki is 0.497 µM. For the same molecule, in the assay on leukemia cell lines, the GI50 worked out at 0.025 ± 0.009 µM.

Turning to `Cc1cnc(N[C@H]2CC[C@H](N)CC2)nc1-c1cnc2ccc(-c3ccoc3)cn12` [Compound 63, (1r,4r)-N^1-(4-(6-(Furan-3-yl)imidazo[1,2-a]pyridin-3-yl)-5-methylpyrimidin-2-yl)cyclohexane-1,4-diamine], the remaining activity at 10 µM at CDK4/D1 was 38%; at CDK6/D3, 29%; on CDKs and other kinases [1] it was 18%; at CDKs and other kinases [2] it was 6%; on CDKs and other kinases [3], 18%. For the same molecule, the Ki at CDK9/T1 is 0.054 µM. Moreover, growth in the assay with leukemia cell lines was halved (GI50) at 0.095 ± 0.031 µM.

For the molecule `Cc1cncc(Nc2ccc3ncc(-c4nc(N[C@H]5CC[C@H](N)CC5)ncc4C)n3c2)c1` [Compound 64, (1r,4r)-N^1-(5-Methyl-4-(6-((5-methylpyridin-3-yl)amino)imidazo[1,2-a]pyridin-3-yl)pyrimidin-2-yl)cyclohexane-1,4-diamine], the remaining activity at 10 µM on CDK4/D1 was 1%; at CDK6/D3, 38%. The Ki turned out to be 0.016 µM on CDK9/T1; 2.37 µM at CDKs and other kinases [1]; 0.59 µM at CDKs and other kinases [2]; 1.44 µM at CDKs and other kinases [3]. In the assay with leukemia cell lines, this molecule registered a GI50 of 0.155 ± 0.054 µM.

Consider `CCOc1ccc(Nc2ccc3ncc(-c4nc(N[C@H]5CC[C@H](N)CC5)ncc4C)n3c2)cn1` [Compound 67, (1r,4r)-N^1-(4-(6-((6-Ethoxypyridin-3-yl)amino)imidazo [1,2-a]pyridin-3-yl)-5-methylpyrimidin-2-yl)cyclohexane-1,4-diamine], for which the remaining activity at 10 µM was 31% at CDK4/D1; 29% at CDK6/D3; 38% on CDKs and other kinases [1]; 10% on CDKs and other kinases [2]; 52% on CDKs and other kinases [3]. Further, on CDK9/T1, the Ki was found to be 0.017 µM. In the assay on leukemia cell lines, this molecule had a GI50 of 0.128 ± 0.04 µM.

For `Cc1cnc(N[C@H]2CC[C@H](N)CC2)nc1-c1cnc2ccc(Nc3ccc(OC(F)F)nc3)cn12` [Compound 68, (1r,4r)-N^1-(4-(6-((6-(Difluoromethoxy)pyridin-3-yl)amino)imidazo[1,2-a]pyridin-3-yl)-5-methylpyrimidin-2-yl) cyclohexane-1,4-diamine], the remaining activity at 10 µM on CDK4/D1 is 37%; on CDK6/D3, 23%. Further, the Ki on CDK9/T1 came out at 0.033 µM; at CDKs and other kinases [1] it was 2.18 µM; at CDKs and other kinases [2] it was 0.35 µM; at CDKs and other kinases [3] it was 0.71 µM. Also, growth in the assay with leukemia cell lines was halved (GI50) at 0.127 ± 0.002 µM.

(Values after US11111245B2, “Derivatives of N-cycloalkyl/heterocycloalkyl-4-(imidazo[1,2-a]pyridine)pyrimidin-2-amine as therapeutic agents” (Aucentra Therapeutics Pty Ltd, priority 2017, dated 2021).)
